Test results taken from PubChem BioAssay (NCI).
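Results reflect a 48-hour exposure of cells in 96-well plates to compound at five concentrations. At the GI50, growth is halved. Definition used: TGI = concentration required for complete inhibition of growth.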

Experiments:
Experiment in all cases: DTP human tumour cell line panel, 48 h
SK-MEL-2 melanoma = tested on: SK-MEL-2 melanoma
HOP-92 NSCLC = tested on: HOP-92 NSCLC
OVCAR-4 ovarian = tested on: OVCAR-4 ovarian
CAKI-1 renal = tested on: CAKI-1 renal
M14 melanoma = tested on: M14 melanoma
LOX IMVI melanoma = tested on: LOX IMVI melanoma
T-47D breast = tested on: T-47D breast
SF-268 CNS = tested on: SF-268 CNS
OVCAR-3 ovarian = tested on: OVCAR-3 ovarian
786-0 renal = tested on: 786-0 renal
MDA-MB-435 = tested on: MDA-MB-435

| SMILES | TGI (SK-MEL-2 melanoma) [µM] | TGI (HOP-92 NSCLC) [µM] | TGI (OVCAR-4 ovarian) [µM] | TGI (CAKI-1 renal) [µM] | TGI (M14 melanoma) [µM] | TGI (LOX IMVI melanoma) [µM] | TGI (T-47D breast) [µM] | TGI (SF-268 CNS) [µM] | TGI (OVCAR-3 ovarian) [µM] | TGI (786-0 renal) [µM] | TGI (MDA-MB-435) [µM] | GI50 (SK-MEL-2 melanoma) [µM] | GI50 (HOP-92 NSCLC) [µM] | GI50 (CAKI-1 renal) [µM] | GI50 (M14 melanoma) [µM] | GI50 (OVCAR-3 ovarian) [µM] | GI50 (SF-268 CNS) [µM] |
| --- | --- | --- | --- | --- | --- | --- | --- | --- | --- | --- | --- | --- | --- | --- | --- | --- | --- |
| NC(=O)c1cnc2sc3ccccc3n2c1=O | > 100 | > 100 | > 100 | > 100 | > 100 | > 100 | > 100 | > 100 | > 100 | > 100 |  |  |  |  |  |  |  |
| Nn1c(CNc2ccc(-c3nnc(Nc4ccc(Cl)cc4)n3N)cc2)nnc1Nc1ccc(Cl)cc1 | > 100 | > 100 | > 100 | > 100 | > 100 |  |  | > 100 |  | > 100 | > 100 |  |  |  |  |  |  |
| Cc1nn2c(N)cc(=O)nc2nc1/C=C/c1ccc(N(C)C)cc1 | > 100 | > 43.6 | > 100 | > 100 | > 100 | 22 | > 100 | > 100 |  | > 100 | > 100 |  |  |  |  |  |  |
| CSc1ccc2c(c1)c(CCN)c(C)n2Cc1ccc(Cl)c(Cl)c1 | 3.34 | 2.78 |  | 3.85 | 3.22 |  |  |  | 3.15 |  |  | 1.74 | 1.4 | 1.82 | 1.69 | 1.7 |  |
| Clc1cc2nc(C3CCCO3)[nH]c2cc1Cl (stereo not drawn) | > 100 | > 100 | > 100 |  | > 100 | > 100 | > 100 | > 100 | > 100 | > 100 | > 100 |  |  |  |  |  |  |
| NCCCNCCSSCc1ccccc1CSSCCNCCCN | > 100 | 87.9 | > 100 | > 100 | > 100 | > 100 |  | > 100 | > 100 |  |  |  |  |  |  |  |  |
| CSC1=N/C(=C\c2cccs2)C(=O)N1CN1CCOCC1 | > 100 | 94.3 | 86.7 |  | > 100 | > 100 |  | > 100 | > 100 | > 100 | > 100 |  |  |  |  |  |  |
| N#CC12COC3(CCCCC3C1(C#N)C#N)OC2=N (stereo not drawn) | 25.3 | 18.5 |  | 14.2 | 22.4 | 30.3 | 26.7 | 25.3 | 23.1 | > 100 | 64.7 |  |  |  |  |  |  |
| O=C(NC(=O)c1cn(CCN2CCNCC2)c(=O)[nH]c1=O)OCc1ccccc1 |  | > 100 | > 100 | > 100 | > 100 | > 100 |  | > 100 | > 100 |  |  |  |  |  |  |  |  |
| O=C1C(NS(=O)(=O)c2ccccc2)=C(n2cnc3ccccc32)C(=O)c2ccccc21 | > 100 | > 100 | > 100 | > 100 | > 100 | > 100 |  | > 100 | > 100 | > 100 | > 100 |  |  |  |  |  |  |
| CCCS(=O)(=O)O | > 100 | > 100 | > 100 | > 100 | > 100 | > 100 | > 100 | > 100 | > 100 |  | > 100 |  |  |  |  |  |  |
| CN(Cc1cnc2nc(N)nc(N)c2n1)c1ccc(C(=O)NC(CCS(=O)(=O)O)C(=O)O)cc1 (stereo not drawn) | > 100 | > 100 | > 100 | > 100 | > 100 | > 100 | > 100 | > 100 | > 100 |  | > 100 |  |  |  |  |  | 0.972 |
| COc1cc(Cn2c3c(c4c(CN(C)C)c(O)ccc42)C(=O)c2ccccc2C3=O)cc(OC)c1 | 29.8 |  | 26.9 | 30.4 | 32.6 | 40.6 | > 100 | 27.9 | 90.5 | 27.6 | 37 |  |  |  |  |  |  |
| COc1ccc2c(c1)/C(=C(\C(Cl)=C(\Cl)N1CCCCC1)[N+](=O)[O-])N2 |  | > 100 | > 100 | > 100 | > 100 | > 100 | > 100 | > 100 | > 100 | > 100 | > 100 |  |  |  |  |  |  |
| Cc1ccc2nc3c(C(=O)NCCN(C)C)cccc3cc2c1 | 5.3 | 5.08 |  |  |  | 6.4 |  | 2.52 | 5.83 |  |  |  |  |  |  |  |  |
| COc1ccc2c(c1)/C(=C(\C(Cl)=C(Cl)Cl)[N+](=O)[O-])N2 |  | > 100 | > 100 | > 100 | > 100 | > 100 | > 100 | > 100 | > 100 | > 100 | > 100 |  |  |  |  |  |  |
| O=C(Nc1ccc(Cl)cc1)c1cc(S(=O)(=O)Nc2n[nH]c(=O)[nH]2)c(SSc2cc(Cl)c(C(=O)Nc3ccc(Cl)cc3)cc2S(=O)(=O)Nc2n[nH]c(=O)[nH]2)cc1Cl | > 100 | > 100 | > 100 | > 100 | > 100 | > 100 |  | > 100 | > 100 | > 100 | > 100 |  |  |  |  |  |  |
